# Test results taken from patent US8722707B1, “Compositions and methods for inhibition of smooth muscle cell proliferation and neointimal hyperplasia” (The Ohio State University, priority 2009, dated 2014).
# How the values were obtained:
# human aortic SMCs [1] = assay: Cell cycle analysis by flow cytometry in SMCs; type: cell-based; details: 10 μM for 12 or 24 h
# Protocol: Flow cytometry was performed (Selvendiran K, Bratasz A, Tong L, Ignarro L J, and Kuppusamy P, NCX-4016, a nitro-derivative of aspirin, inhibits EGFR and STAT3 signaling and modulates Bcl-2 proteins in cisplatin-resistant human ovarian cancer cells and xenografts. Cell Cycle 7 :8188).
# (§1) The cells were then treated with 0, 0.5, 1, 5, and 10 μM HO-3867 for 24 h, after which the cells were trypsinized and counted for viability. […] We observed inhibition of SMC proliferation by both phase-contrast microscopy (FIG. 1B) and by nuclear staining with DAPI (FIG. 1C). Next, we determined whether the growth inhibition of SMC by HO-3867 was due to cell cycle arrest or apoptosis. SMCs were treated with 10 μM HO-3867 for 12 or 24 h. The cells were then fixed, and cell cycle populations were determined by flow cytometry.
# FAK = FAK expression in SMCs (Western blot); type: cell-based, human; details: 10 μM, 24-h exposure
# Protocol: (§2) Western blotting was performed as reported previously (Selvendiran K, Tong L, Vishwanath S, Bratasz A, Trigg N J, Kutala V K, Hideg K, and Kuppusamy P, EF 24 induces G 2/M arrest and apoptosis in cisplatin-resistant human ovarian cancer cells by increasing PTEN expression. J Biol Chem 282::28609-28618).
# [2] = system: p38 mitogen-activated protein kinase; assay: Activation of p38 mitogen-activated protein kinase in cultured SMCs; type: cell-based, human; details: data not shown
# Source text: (§3) We next wanted to check the involvement of reactive oxygen species-mediated p38 mitogen-activated protein kinase pathways in the activation of ATF-2.
# MMP-9 [3] = assay: MMP-9 expression in SMCs (Western blot, immunofluorescence); type: cell-based, human; details: 10 μM for 12 or 24 h
# Protocol: as §2
# (§4) SMCs, grown on Lab-Tek Chamber slides (Nalge Nunc International, Rochester, N.Y.), were fixed with 4% paraformaldehyde for 10 min at room temperature and then washed in PBS containing 0.05% Tween 20. Nonspecific reactions were blocked with Protein B lock Serum-Free (DAKO, Kyoto, Japan) and then incubated with an anti-PTEN, MMP-2, or MMP-9 antibody at 4 C overnight. After washing in PBS containing 0.05% Tween 20, the specimens were treated with Alexa Fluor goat anti-mouse IgG (H+L) antibody (Invitrogen, Carlsbad, Calif.) for 45 min at room temperature and then counterstained by propidium iodide after digestion of RNA by RNase (Invitrogen). The immunostaining of PTEN, MMP-2, and MMP-9 proteins was visualized using a fluorescence microscope (Nikon, Tokyo, Japan).
# (§5) We investigated whether the HO-3867-induced PTEN expression could suppresses MMP expression in SMCs.
# MMP-9 [4] = assay: MMP-9 activity by gelatin zymography in rat carotid artery; type: in vivo, Sprague-Dawley rats; details: treatment group compared with injured/untreated group
# Protocol: (§6) MMP-2 and MMP-9 was determined by gelatin zymography as reported previously (Cho and Reidy, 2002). Matrix metalloproteinase-9 is necessary for the regulation of smooth muscle cell replication and migration after arterial injury. Circ Res 91:845-851).
# (§7) All experiments involving animals were performed in accordance with the relevant guidelines and regulations approved by the Internal Animal Care and Use Committee of The Ohio State University. Sprague-Dawley rats weighing 300 to 350 g were anesthetized by an intraperitoneal injection of ketamine (6 0 mg/kg) and xylazine (5 mg/kg). Under a stereomicroscope, the right common, external, and internal carotid arteries were exposed by a longitudinal midline cervical incision. Blood flow was temporarily interrupted by ligation of the common and internal carotid arteries using vessel clips. The external carotid artery was ligated permanently using 6-0 silk suture. […]
# (§8) Immediately after completion of the carotid injury procedure, subcutaneous administration of HO-3867 (in 10% DMSO+40% polyethylene glycol+50% PBS) commenced at a dose of 5 or 10 mg/kg/day, and continued for 2 weeks (n=5 for each group). […] The intimal and medial areas were measured using MetaMorph software (Molecular Devices, Sunnyvale, Calif.), and intimal/medial ratios were calculated. […]
# PTEN [5] = assay: PTEN expression and activation in SMCs (Western blot, immunofluorescence, RT-PCR); type: cell-based, human; design: PTEN mRNA expression: dose or concentration left out as unconfirmed
# Protocol: as §2, §4
# Total RNA was isolated from SMCs using the RNeasy system according to the instructions of the manufacturer. RNA quantification was done using spectrophotometry. Reverse transcription (RT)-PCR analysis for the mRNA expressions in PTEN and the internal control GAPDH was carried out using a GeneAmp PCR System Veriti thermo cycler (Applied Biosystems, Foster City, Calif.) under the following conditions: initial denaturation at 94 C for 2 min, 35 cycles of amplification (denaturation at 94 C for 30 s, annealing at 50 C for 30 s, and extension at 72 C for 30 s), and extension at 72 C for 5 min. The sequences (5′-3′) for the primer pairs of PTEN and GAPDH, respectively, were as follows:
# This was further confirmed by immunofluorescence microscopy (FIG. 2B).
# To confirm whether the increase in the expression of PTEN was due to its transcriptional induction by HO-3867, we performed RT-PCR analysis for PTEN mRNA.
# rat carotid artery = assay: Neointimal formation after balloon injury in rat carotid artery (morphometric analysis); type: in vivo, Sprague-Dawley rats; details: subcutaneous
# Protocol: (§9) All experiments involving animals were performed in accordance with the relevant guidelines and regulations approved by the Internal Animal Care and Use Committee of The Ohio State University. Sprague-Dawley rats weighing 300 to 350 g were anesthetized by an intraperitoneal injection of ketamine (6 0 mg/kg) and xylazine (5 mg/kg). Under a stereomicroscope, the right common, external, and internal carotid arteries were exposed by a longitudinal midline cervical incision. Blood flow was temporarily interrupted by ligation of the common and internal carotid arteries using vessel clips. The external carotid artery was ligated permanently using 6-0 silk suture. A 2F Fogarty arterial embolectomy catheter (Edwards Lifesciences, Irvine, Calif.) was introduced through an arteriotomy in the external carotid artery just below the ligature and advanced to the common carotid artery. To produce the injury, the balloon was inflated with saline and passed six times with rotation from just under the proximal edge of the omohyoid muscle to the carotid bifurcation. The balloon was then deflated, and the catheter was withdrawn. Blood flow was restored by removing the clips on the common and internal carotid arteries. After visual inspection to ascertain adequate pulsation of the common carotid artery, the surgical incision was closed, and the rats were allowed to recover from anesthesia in a humidified and warmed chamber for 2 to 4 h.
# as §8, with “group). The control group received the vehicle only. After treatment for 14 days, the animals were sacrificed with an overdose of pentobarbital (200 mg/kg), and the carotid arteries were collected for morphometric analysis and isolation of proteins for analysis by Western blotting.” for “group).”
# human aortic SMCs [6] = assay: Serum-stimulated proliferation of human aortic SMCs (viable cell count); type: cell-based
# Protocol: Human aortic SMCs were obtained at passage 3 (AoSMC; Lonza Walkersville, Inc., Walkersville, Md.). The cells were maintained in culture in a humidified incubator at 37 C and 5% CO2 in smooth muscle cell growth medium (SmG M-2). Cells were trypsinized and passaged at 95% confluence. Studies were performed using cells at passages 4 to 6 at 6 0 to 90% confluence. Cells were counted using an automated cell counter (NucleoCounter; New Brunswick Scientific, Edison, N.J.).
# We first studied the effect of HO-3867 on serum-stimulated proliferation of human aortic SMCs, in vitro (FIG. 1A).
# as §1
# NF-κB p65 = NF-κB p65 expression in SMCs (Western blot); type: cell-based, human; details: 10 μM, 24-h exposure
# Protocol: as §2
# In addition, HO-3867 inhibited NF-κB p65, one of the main regulator mechanisms in the inflammatory activation of MMP-9 in SMCs (FIG. 5A).
# MMP-2 [7] = assay: MMP-2 activity by gelatin zymography in rat carotid artery; type: in vivo, Sprague-Dawley rats; details: treatment group compared with injured/untreated group
# Protocol: as §6, §7, §8
# [8] = system: p53, p21, ERK1/2, cyclin D1, Akt; assay: Cell cycle regulatory proteins in SMCs (Western blot); type: cell-based, human; details: SMCs treated with HO-3867
# Protocol: as §2
# [9] = system: human aortic endothelial cells; assay: Inhibitory effect on human aortic endothelial cells; type: cell-based; details: 10 μM
# [10] = system: PTEN cDNA-transfected SMCs; assay: PTEN cDNA-transfected SMCs treated with HO-3867 (survival, cell cycle, cleaved caspase-3); type: cell-based, human
# Protocol: The PTEN siRNA and cDNA transfection experiments were performed as reported (Selvendiran et al., 2007, supra).
# We investigated whether the PTEN overexpression was responsible for the inhibition of cell survival and proliferation in SMCs. We used wild-type PTEN cDNA transfection into SMCs for these experiments. Twenty-four hours after transfection, the cells were treated with 10 μM HO-3867 for 12 h.
# ATF-2 = ATF-2 activation in SMCs (Western blot); type: cell-based, human; design: dose or concentration left out as unconfirmed; details: HO-3867 (FIG. 3A legend)
# Protocol: as §2, §3
# PTEN [11] = assay: PTEN expression in rat carotid artery tissue after balloon injury; type: in vivo, Sprague-Dawley rats; details: subcutaneous, 14 days
# Protocol: as §2, §7, §8
# [12] = system: MMP-2, MMP-9, NF-κB p65, pERK1/2, pAkt, cyclin D1, p53, cleaved caspase-3; assay: Western blot of regulatory proteins in rat carotid artery tissue after balloon injury; type: in vivo, Sprague-Dawley rats
# Protocol: as §2
# as §9, with “After visual inspection to ascertain adequate pulsation of the common carotid artery, the surgical incision was closed, and the rats were allowed to recover from anesthesia in a humidified and warmed chamber for 2 to 4 h.” left out
# Immediately after completion of the carotid injury procedure, subcutaneous administration of HO-3867 (in 10% DMSO+40% polyethylene glycol+50% PBS) commenced at a dose of 5 or 10 mg/kg/day, and continued for 2 weeks (n=5 for each group). […] The intimal and medial areas were measured using MetaMorph software (Molecular Devices, Sunnyvale, Calif.), and intimal/medial ratios were calculated.
# MMP-2 [13] = assay: MMP-2 expression in SMCs (Western blot, immunofluorescence); type: cell-based, human; details: 10 μM for 12 or 24 h
# Protocol: as §2, §4, §5
# reactive oxygen species = assay: Production of reactive oxygen species in cultured SMCs; type: cell-based, human; details: data not shown
# Source text: as §3
# [14] = 10 μM, as early as 1 h of treatment, immunoblot
# [15] = Western blot of carotid tissue, 14 days treatment
structure (smiles),measurement,setting,value
"CC1(C)C=C(CN2C/C(=C\c3ccc(F)cc3)C(=O)/C(=C/c3ccc(F)cc3)C2)C(C)(C)N1O [HO-3867, 1-[(1-Oxyl-2,2,5,5-tetramethyl-2,5-dihydro-1H-pyrrol-3-yl)methyl]-(3E,5E)-3,5-Bis(4-fluorobenzylidene)piperidin-4-one]",sub-G1 population (apoptosis),human aortic SMCs [1],no effect
same,G1 cell cycle arrest,human aortic SMCs [1]; time-dependent,induced G1 cell cycle arrest
same,expression of FAK,FAK,down-regulated
same,activation of p38 mitogen-activated protein kinase,[2],did not detect
same,MMP-9 expression,MMP-9 [3],down-regulated
same,MMP-9 activity,MMP-9 [4],significantly down-regulated
same,PTEN activation (pPTEN),PTEN [5]; [14],induced
same,PTEN expression,PTEN [5]; [14],induced
same,PTEN mRNA expression,"PTEN [5]; RT-PCR, in 3 h",increase
same,inhibition of neointimal formation,"rat carotid artery; 5 mg/kg, 14 days, data not shown",did not show any significant inhibition
same,intima/media ratio,"rat carotid artery; daily for 14 days after balloon injury, versus injured/untreated",significantly reduced
same,intimal thickening,"rat carotid artery; daily for 14 days after balloon injury, 10 mg/kg (FIG. 7A)",significantly inhibited
same,viable cell count,"human aortic SMCs [6]; 0, 0.5, 1, 5, and 10 μM for 24 h, FBS-stimulated SMCs",decreased in a concentration-dependent manner
same,EC50,"human aortic SMCs [6]; 10% FBS-stimulated human SMCs, HO-3867 for 24 h, viable cell count",3.82 µM
same,cell-counts,"human aortic SMCs [6]; at 1, 5, and 10 μM, 24 h, p<0.05 versus untreated cells",Significantly reduced cell-counts
same,NF-κB p65,NF-κB p65,inhibited
same,MMP-2 activity,MMP-2 [7],significantly down-regulated
same,Akt level,[8],without any change
same,ERK1/2 and cyclin D1,[8],down-regulation
same,p53 and p21,[8],induction
same,inhibitory effect on human aortic endothelial cells,[9],did not have any significant inhibitory effect
same,survival of PTEN cDNA-transfected cells,"[10]; 10 μM HO-3867, compared with untreated or nontransfected cells",even more significant reduction
same,"apoptotic population (sub-G1), PTEN cDNA overexpression plus HO-3867","[10]; 10 μM, 12 h, compared with PTEN cDNA- or HO-3867-alone-treated groups",significantly increased
same,"cleaved caspase-3 levels, PTEN cDNA+HO-3867-treated cells","[10]; 10 μM, 12 h, compared with untreated or nontransfected cells",substantial increase
same,time to ATF-2 activation,ATF-2,≤ 15 min
same,PTEN level in carotid artery tissue,PTEN [11]; 5 mg/kg,restored PTEN to the control level
same,PTEN level in carotid artery tissue,PTEN [11]; 10 mg/kg,increased the PTEN level significantly above control level
same,apoptosis in vivo (activation of cleaved caspase-3),[12]; 10-mg/kg dose,induced apoptosis in vivo
same,"MMP-2, MMP-9, NF-κB p65, pERK1/2, pAkt, and cyclin D1 in tissue",[12]; [15],down-regulation
same,p53 and cleaved caspase-3 in tissue,[12]; [15],up-regulation
same,MMP-2 expression,MMP-2 [13],down-regulated
same,production of reactive oxygen species,reactive oxygen species,did not detect
